Measurements: patent US9017713B2, “Magnetic carrier and medical preparation for controllable delivery and release of active substances, methods of their production and methods of treatment using thereof” (priority 2006, dated 2015)

Assays:
[1] = Desorption of pharmaceutical from heat-sensitive polymer film on magnetic carrier by cooling below LCST; assay type: physicochemical; conditions: Fe0.49Rh0.51 plates with graphite layer, film of copolymer NIPAAm with 35 mol % tBuAM; cooled below LCST to 15.9° C.
Procedure: The method may be realized, for example, as follows: quenched magnetic material Fe0.49Rh0.51 covered with a heat-sensitive polymer together with a pharmaceutical (for example, anti-inflammatory) in the form of particles in of about 150-200 nm is administered inside of an organism through a catheter and delivery of the aforementioned particles is performed to a target organ or a tissue. Magnetic field of 2 T is applied on the area, where the particles are concentrated. The magnetic material is cooled by 13° C., which results in refrigerating of a heat-sensitive polymer, for example (co)polymer N-iso-propyl acrylamide, down to temperature below LCST, in this case down to 24° C., and desorption of the pharmaceutical from the surface of heat-sensitive polymer takes place.
A procedure analogous to that described in Example 4, but administration of a pharmaceutical Adriablastin in an organism is made, when the magnetic carrier represents alloy of iron-rhodium Fe0.49Rh0.51, which surface is covered with copolymer NIPAAm with 35 mol % of tBuAM film, with alloy surface preliminary covered with a thin protective graphite layer (preventing oxidation); the magnetic material is prepared in the form of plates. […]

[2] = F 127 ferrofluid gel, constant magnetic field; cited from earlier work

| Time of desorption [1] [min] | Compound | Increase of release after application of magnetic field to the gel [2] [%] |
| --- | --- | --- |
| 30 ± 5 | COc1cccc2c1C(=O)c1c(O)c3c(c(O)c1C2=O)C[C@@](O)(C(=O)CO)C[C@@H]3O[C@H]1C[C@H](N)[C@H](O)[C@H](C)O1 [Adriablastin] |  |
|  | vitamin B12 | 20 |
